Assays:
[1] = biological target: T1, Prothrombin (Homo sapiens, UniProt P00734); assay: Inhibitory concentration against human alpha thrombin
[2] = biological target: T1, Prothrombin; assay: Binding affinity determined against human alpha thrombin
[3] = biological target: T2, Serine protease 1 (Bos taurus, UniProt P00760); assay: Binding affinity against bovine trypsin
T2 sequence (P00760 whole entry): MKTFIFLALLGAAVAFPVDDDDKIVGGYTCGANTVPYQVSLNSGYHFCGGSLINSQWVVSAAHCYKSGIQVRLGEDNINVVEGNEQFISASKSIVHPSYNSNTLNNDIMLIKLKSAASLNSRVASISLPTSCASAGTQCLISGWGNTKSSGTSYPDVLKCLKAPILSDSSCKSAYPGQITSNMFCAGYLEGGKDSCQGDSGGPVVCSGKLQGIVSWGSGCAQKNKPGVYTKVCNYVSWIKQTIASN

[4] = organism: Homo sapiens; assay: Inhibitory concentration against gel filtered platelet aggregation induced by alpha thrombin; assay type: functional
[5] = test system: Cavia porcellus; assay: Percent change in blood pressure in guinea pig at 3 mg/kg dose
[6] = test system: Cavia porcellus; assay: Percent change in blood pressure in guinea pig at 10 mg/kg dose

IC50 [1]	Ki [2]	Ki [3]	SMILES	IC50 [4]	Delta BP [5]	Delta BP [6]
80 nM	17 nM		CN[C@H](Cc1ccccc1)C(=O)N1CCC[C@H]1C(=O)N[C@H](CCCN=C(N)N)C(=O)c1nc2ccccc2s1			
14000 nM			CC(=O)N1CCC[C@H]1C(=O)NC(CCCN=C(N)N)C(=O)c1nc2ccccc2s1 (stereo partly specified)			
> 50000 nM		1300 nM	NC(N)=NCCCC(NC=O)C(=O)c1nc2ccccc2s1 (stereo unspecified)			
110 nM	6.2 nM	13 nM	CN[C@H](Cc1ccccc1)C(=O)N1CCC[C@H]1C(=O)NC(CCCN=C(N)N)C(=O)c1nc2ccccc2o1 (stereo partly specified)			
120 nM	4.5 nM	5.4 nM	CCOC(=O)c1csc(C(=O)C(CCCN=C(N)N)NC(=O)[C@@H]2CCCN2C(=O)[C@@H](Cc2ccccc2)NC)n1 (stereo partly specified)			
21000 nM	2100 nM	5300 nM	CN[C@H](Cc1ccccc1)C(=O)N1CCC[C@H]1C(=O)N(C)[C@@H](CCCN=C(N)N)C(=O)c1nc2ccccc2s1			
			CN[C@H](Cc1ccccc1)C(=O)N1CCC[C@H]1C(=O)NC(CCCN=C(N)N)C(=O)c1nc2ccc(O)cc2s1 (stereo partly specified)		-34%	
112 nM	9.1 nM	6 nM	CN[C@H](Cc1ccccc1)C(=O)N1CCC[C@H]1C(=O)NC(CCCN=C(N)N)C(=O)c1nc(C(=O)O)cs1 (stereo partly specified)			
830 nM	120 nM	5 nM	CN[C@H](Cc1ccccc1)C(=O)N1CCC[C@H]1C(=O)NC(CCCN=C(N)N)C(=O)c1nc(C(=O)NCCc2ccccc2)cs1 (stereo partly specified)			
46000 nM	3900 nM	12000 nM	CN[C@H](Cc1ccccc1)C(=O)N1CCC[C@H]1C(=O)N[C@@H](CCCOC)C(=O)c1nc2ccccc2s1			
370 nM	15 nM	2600 nM	CN[C@H](Cc1ccccc1)C(=O)N1CCC[C@H]1C(=O)N[C@H](Cc1cccc(C(=N)N)c1)C(=O)c1nc2ccccc2s1			
490 nM	73 nM	2.6 nM	CNC1(C(=O)N2CCC[C@H]2C(=O)NC(CCCN=C(N)N)C(=O)c2nc3ccccc3s2)CCCCC1 (stereo partly specified)			
13000 nM	2400 nM	1300 nM	CN[C@H](Cc1ccccc1)C(=O)N1CCC[C@H]1C(=O)NC(CCCN=C(N)N)C(=O)c1cc2ccccc2s1 (stereo partly specified)			
		250 nM	NC(N)=NCCCC(NC(=O)[C@@H]1CCCN1)C(=O)c1nc2ccccc2s1 (stereo partly specified)			
1000 nM	99 nM	210 nM	CN[C@H](Cc1ccccc1)C(=O)N1CCC[C@H]1C(=O)N[C@@H](C[C@H]1CCCN(C(=N)N)C1)C(=O)c1nc2ccccc2s1			
17000 nM	920 nM	54 nM	CN[C@H](Cc1ccccc1)C(=O)N1CCC[C@H]1C(=O)N[C@H](C(=O)c1nc2ccccc2s1)[C@H]1CC[C@H](CN)CC1			
19 nM		1.2 nM	CN[C@H](Cc1ccccc1)C(=O)N1CCC[C@H]1C(=O)N[C@@H](CCCNC(=N)N)C(=O)c1nccs1			

IC50 [1]	Ki [2]	Ki [3]	SMILES	IC50 [4]	Delta BP [5]	Delta BP [6]
15 nM	2.1 nM	1.8 nM	CNC(C(=O)N1CCC[C@H]1C(=O)NC(CCCN=C(N)N)C(=O)c1nc2ccccc2s1)(c1ccccc1)c1ccccc1 (stereo partly specified)			
4000 nM	400 nM	57 nM	Cc1cccc(C(C)(C)CN(CC(=O)N[C@@H](CCCN=C(N)N)C(=O)c2nc3ccccc3s2)C(=O)CCc2ccccc2)c1			
		30 nM	N=C(N)NCCCC(NC(=O)C1CCCC1)C(=O)c1nc2ccccc2s1 (stereo unspecified)			
150 nM	3.8 nM	9.3 nM	CN[C@H](Cc1c(F)c(F)c(F)c(F)c1F)C(=O)N1CCC[C@H]1C(=O)NC(CCCN=C(N)N)C(=O)c1nc2ccccc2s1 (stereo partly specified)			
51 nM	1.6 nM	8 nM	CN[C@H](Cc1ccccc1)C(=O)N1CCC[C@H]1C(=O)N[C@@H](C[C@@H]1CCCN(C(=N)N)C1)C(=O)c1nc2ccccc2s1			
430 nM		2.4 nM	CC(=O)N[C@H](Cc1ccccc1)C(=O)N1CCC[C@H]1C(=O)NC(CCCN=C(N)N)C(=O)c1nc2ccccc2s1 (stereo partly specified)			
	0.99 nM	1.8 nM	CN[C@H](Cc1ccccc1)C(=O)N1CCC[C@H]1C(=O)N[C@@H](Cc1cccc(C(=N)N)c1)C(=O)c1nc2ccccc2s1			
		3.9 nM	C[C@@](N)(Cc1ccccc1)C(=O)N1CCC[C@H]1C(=O)NC(CCCN=C(N)N)C(=O)c1nc2ccccc2s1 (stereo partly specified)			
106 nM	15 nM	8.3 nM	CN[C@H](Cc1ccccc1)C(=O)N1CCC[C@H]1C(=O)NC(CCCN=C(N)N)C(=O)c1nc2ccccc2c(=O)[nH]1 (stereo partly specified)			
		5.3 nM	CN[C@H](Cc1ccccc1)C(=O)N1CCC[C@H]1C(=O)NC(CCCN=C(N)N)C(=O)c1nc2ccc(CO)cc2s1 (stereo partly specified)			
930 nM			CN[C@H](Cc1ccccc1)C(=O)N1CCC[C@H]1C(=O)N[C@@H](CCCNC(=N)N)C(=O)c1ccccn1			
360 nM	9.6 nM	12 nM	CN[C@H](Cc1ccccc1)C(=O)N1CCC[C@H]1C(=O)NC(CCCN=C(N)N)C(=O)c1nc2ccccc2[nH]1 (stereo partly specified)			
	380 nM	540 nM	CN[C@H](Cc1ccccc1)C(=O)N1CCC[C@H]1C(=O)N[C@H](C[C@H]1CCCN(C(=N)N)C1)C(=O)c1nc2ccccc2s1			
		1.5 nM	CN[C@H](Cc1ccccc1)C(=O)N1CCC[C@H]1C(=O)NC(CCCN=C(N)N)C(=O)c1nc2ccc(F)cc2s1 (stereo partly specified)			
	18 nM		CN[C@H](Cc1ccccc1)C(=O)N1CCC[C@H]1C(=O)N[C@H](C=O)CCCN=C(N)N (stereo in doubt)			
48000 nM	5300 nM	180000 nM	CN[C@H](Cc1ccccc1)C(=O)N1CCC[C@H]1C(=O)N[C@@H](CCCN=C(N)N)C(O)c1nc2ccccc2s1 (stereo in doubt; form 1)			
17000 nM	1600 nM	250000 nM	CN[C@H](Cc1ccccc1)C(=O)N1CCC[C@H]1C(=O)N[C@@H](CCCN=C(N)N)C(O)c1nc2ccccc2s1 (stereo in doubt; form 2)			

SMILES	IC50 [1]	Ki [2]	Ki [3]	IC50 [4]	Delta BP [5]	Delta BP [6]
CN[C@H](Cc1ccccc1)C(=O)N1CCC[C@H]1C(=O)NC(C(=O)c1nc2ccccc2s1)C1CCC(N)CC1 (stereo partly specified)	1900 nM	110 nM	330 nM	76 nM	-25%	
CN[C@H](Cc1ccccc1)C(=O)N1CCC[C@H]1C(=O)NC(CCCN=C(N)N)C(=O)c1nc2c(s1)CCCC2 (stereo partly specified)	80 nM	3.4 nM	4.4 nM	22 nM		-70%
CN[C@H](Cc1ccc(F)cc1)C(=O)N1CCC[C@H]1C(=O)NC(CCCN=C(N)N)C(=O)c1nc2ccccc2s1 (stereo partly specified)	15 nM	0.12 nM	3 nM			
CN[C@H](Cc1ccccc1)C(=O)N1CCC[C@H]1C(=O)NC(CCCN=C(N)N)C(=O)c1nc2ccc(OC)cc2s1 (stereo partly specified)			2 nM		-44%	
CN[C@H](Cc1ccccc1)C(=O)N1CCC[C@H]1C(=O)N[C@H](CCCCN)C(=O)c1nc2ccccc2s1		210 nM	20 nM		-41%	
N=C(N)NCCC[C@H](NC(=O)CN1CCCC[C@H](NS(=O)(=O)Cc2ccccc2)C1=O)C(=O)c1nc2ccccc2s1	270 nM	16 nM	9.4 nM	47 nM		-39%
CCCC(CCC)C(=O)N[C@@H](CC(=O)OC)C(=O)N1CCC[C@H]1C(=O)N[C@@H](CCCNC(=N)N)C(=O)c1nc2ccccc2s1	56 nM	1.4 nM	16 nM	16 nM		
CN[C@H](Cc1ccccc1)C(=O)N1CCC[C@H]1C(=O)N[C@@H](CCCNC(=N)N)C(=O)c1nccn1C	1500 nM		5800 nM	230 nM		-68%
CN[C@H](Cc1ccccc1)C(=O)N1CCC[C@H]1C(=O)NC(CCCN=C(N)N)C(=O)c1nc2ccc3ccccc3c2s1 (stereo partly specified)	60 nM	0.58 nM	15 nM			-51%
CN[C@H](Cc1ccccc1)C(=O)N1CCCC[C@H]1C(=O)NC(CCCN=C(N)N)C(=O)c1nc2ccccc2s1 (stereo partly specified)	38 nM	0.34 nM	1.8 nM	10 nM	-45%	
CN[C@@H](C(=O)N1CCC[C@H]1C(=O)NC(CCCN=C(N)N)C(=O)c1nc2ccccc2s1)C1CCCCC1 (stereo partly specified)	5.3 nM		1.2 nM	17 nM	-21%	
N=C(N)NCCCC(NC(=O)[C@@H]1CCCN1C(=O)C(O)C1c2ccccc2-c2ccccc21)C(=O)c1nc2ccccc2s1 (stereo partly specified)	95 nM	3.1 nM	2 nM			-71%
CCS(=O)(=O)N[C@H](Cc1ccccc1)C(=O)N1CCC[C@H]1C(=O)NC(C(=O)c1nc2ccccc2s1)C1CCC(N)CC1 (stereo partly specified)	460 nM	53 nM	87 nM	120 nM		
CN[C@H](Cc1ccccc1)C(=O)N1CCC[C@H]1C(=O)NC(CCCN=C(N)N)C(=O)c1nc2ccccc2n1C (stereo partly specified)	110 nM	8.1 nM	290 nM	59 nM	-30%	
CN[C@H](CC1CCCCC1)C(=O)N1CCC[C@H]1C(=O)NC(CCCN=C(N)N)C(=O)c1nc2ccccc2s1 (stereo partly specified)			3.9 nM	28 nM	-49%	
CN[C@@H](C(=O)N1CCC[C@H]1C(=O)NC(CCCN=C(N)N)C(=O)c1nc2ccccc2s1)c1ccccc1 (stereo partly specified)	34 nM	0.46 nM		17 nM	-63%	
CN[C@H](Cc1ccccc1)C(=O)N1CCC[C@H]1C(=O)N[C@@H](CCCCN)C(=O)c1nc2ccccc2s1	650 nM	38 nM	4.3 nM		-45%	
CS(=O)(=O)CC[C@H](NS(=O)(=O)Cc1ccccc1)C(=O)N1CCC[C@H]1C(=O)N[C@@H](CCCNC(=N)N)C(=O)c1nc2ccccc2s1	95 nM	1.5 nM	2.7 nM	37 nM		-64%

Reference: ChEMBL document CHEMBL1142732, “In-depth study of tripeptide-based alpha-ketoheterocycles as inhibitors of thrombin. Effective utilization of the S1' subsite and its implications to structure-based drug design” (J Med Chem, 2005)
